Holding throughout (assay): ITC binding of oleoyl-CoA to MftR variant
Design in all cases: species or system Mycobacterium smegmatis mc^2155

One experiment concerns the target T1, MftR F96A (Mycolicibacterium smegmatis, UniProt A0QSB5, F96A).
T1 sequence (A0QSB5 1-200 F96A): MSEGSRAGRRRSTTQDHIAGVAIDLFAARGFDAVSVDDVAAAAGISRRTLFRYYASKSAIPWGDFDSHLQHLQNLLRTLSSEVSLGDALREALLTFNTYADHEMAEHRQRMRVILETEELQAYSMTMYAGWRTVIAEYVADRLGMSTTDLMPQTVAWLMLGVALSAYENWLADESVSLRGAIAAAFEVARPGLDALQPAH
An excerpt: (§1) Next, we examined which amino acid residues contribute to the interaction between MftR and oleoyl-CoA. The crystal structure of Msmeg MftR is currently unavailable; however, an unpublished structure of Rhodococcus jostii RHA1 MftR has been deposited in the Protein Data Bank (PDB) (PDB ID: 2RAE, 54% identical, Fig. S3). Using this structure, we employed SwissDock to model oleoyl-CoA bound to MftR (Fig. 5) ([41], [42]). From the docked structure, we identified eight conserved residues on MftR that were expected to create the acyl-binding pocket or bind CoA through electrostatic interactions. Following single amino acid replacements of the residues, we measured the Kd values of the mutant proteins to oleoyl-CoA using ITC. For the putative acyl-binding pocket residues Phe65, Phe96, and Ile114, mutations to alanine led to no or modest change to the Kd for oleoyl-CoA (Table 1). […] Conversely, when His68 was mutated to alanine, binding of oleoyl-CoA by the protein was undetectable. To validate this observation, competitive EMSAs were carried out using the H68A mutant. […] Thus, it is highly likely that His68 is an important residue for oleoyl-CoA binding. To evaluate residues that were expected to interact with CoA, Gln15, Asp16, Ser67, and Asp66 were targeted. Of these, mutants of Asp16 and Ser67 had the greatest effect (Table 1). […] This latter observation was validated using competitive EMSAs (Fig. S4B). […] Taken together, it is likely that Ser67 and Asp16 participate in oleoyl-CoA binding, likely through electrostatic interactions.
(§2) Mutant strand synthesis reactions were performed according to the Agilent QuikChange site-directed mutagenesis protocol. The mftR_pET28a plasmid was used as a template for site-directed mutagenesis studies. Sequence-verified plasmids were transformed into E. coli BL21(DE3) pLysS cells for protein production and purified using the same protocol as wildtype MftR.
(§3) ITC was performed using TA Nano ITC. MftR was loaded in the sample cell at the concentration of 16 and 250 μM acyl-CoAs (C12–C18) loaded in the syringe. To minimize the effect of buffer mismatch, the stock concentration of acyl-CoAs was prepared using ITC buffer (50 mM Hepes, 50 mM NaCl, and pH 7.5), and the pH was adjusted to within 0.05 units. In addition, MftR was buffer exchanged into ITC buffer using a PD-10 column (GE Life Sciences). The volume of the titrant added at each injection into the sample cell was 2.22 μl. The time interval between the successive injections was 180 s. The temperature of the cell was kept at 25 °C. The data obtained were fit by independent one-site model using NanoAnalyze Data Analysis, version 3.8.0, that was provided with the instrument.

Another experiment has as its target MftR D16R. The settings on record: ND = not detected.
Description: as §1, §2, §3

The target in experiment [1] is T2, MftR S67W (Mycolicibacterium smegmatis, UniProt A0QSB5, S67W).
T2 sequence (A0QSB5 1-200 S67W): T1 sequence (A0QSB5 1-200 F96A)
Description: as §1, §2, §3

For the next experiment, the target named is T3, MftR F65A (Mycolicibacterium smegmatis, UniProt A0QSB5, F65A).
T3 sequence (A0QSB5 1-200 F65A): T1 sequence (A0QSB5 1-200 F96A)
Description: as §1, §2, §3

The target of a further experiment is T4, MftR S67A (Mycolicibacterium smegmatis, UniProt A0QSB5, S67A).
T4 sequence (A0QSB5 1-200 S67A): T1 sequence (A0QSB5 1-200 F96A)
Description: as §1, §2, §3

A further experiment has as its target MftR H68A. The note with it: ND = not detected.
Description: as §1, §2, §3

A further experiment addresses T5, MftR D16W (Mycolicibacterium smegmatis, UniProt A0QSB5, D16W).
T5 sequence (A0QSB5 1-200 D16W): T1 sequence (A0QSB5 1-200 F96A)
Description: as §1, §2, §3

Experiment [2] deals with MftR S67W. The settings on record: S67W mutation vs WT, ITC.
Description: as §1, §2, §3

The target of another experiment is T6, MftR Q15A (Mycolicibacterium smegmatis, UniProt A0QSB5, Q15A).
T6 sequence (A0QSB5 1-200 Q15A): T1 sequence (A0QSB5 1-200 F96A)
Description: as §1, §2, §3

The target of another experiment is T7, MftR D66A (Mycolicibacterium smegmatis, UniProt A0QSB5, D66A).
T7 sequence (A0QSB5 1-200 D66A): T1 sequence (A0QSB5 1-200 F96A)
Description: as §1, §2, §3

For a further experiment, the target named is T8, MftR I114A (Mycolicibacterium smegmatis, UniProt A0QSB5, I114A).
T8 sequence (A0QSB5 1-200 I114A): T1 sequence (A0QSB5 1-200 F96A)
Description: as §1, §2, §3

A further experiment addresses T9, MftR L120A (Mycolicibacterium smegmatis, UniProt A0QSB5, L120A).
T9 sequence (A0QSB5 1-200 L120A): T1 sequence (A0QSB5 1-200 F96A)

Molecules are shown by their SMILES.

As for `CCCCCCCC/C=C\CCCCCCCC(=O)SCCNC(=O)CCNC(=O)[C@H](O)C(C)(C)COP(=O)(O)OP(=O)(O)OC[C@H]1O[C@@H](n2cnc3c(N)ncnc32)[C@H](O)[C@@H]1OP(=O)(O)O` [oleoyl-CoA], the Kd (commonly the equilibrium constant for the complex coming apart) at MftR F96A was 1400 ± 100 nM; at MftR D16R, “no longer detectable”; on MftR S67W [1], 8300 ± 200 nM; at MftR F65A, 1900 ± 100 nM; at MftR S67A, 5400 ± 200 nM; at MftR H68A it was “undetectable”. Further, the Kd at MftR D16W was 4800 ± 200 nM; at MftR Q15A, 2000 ± 100 nM; on MftR D66A it was 1600 ± 100 nM; on MftR I114A, 2400 ± 100 nM; at MftR L120A, 5200 ± 200 nM. For the same molecule, the “increase in the Kd value for oleoyl-CoA” value on MftR S67W [2] is given as “eightfold increase”.

Values taken from paper PMC8728441, “Biosynthesis of the redox cofactor mycofactocin is controlled by the transcriptional regulator MftR and induced by long-chain acyl-CoA species” (The Journal of Biological Chemistry, 2021).
